{"source": "patent US6313111A", "about": "“Substituted 6H-1,3,4-thiadiazine-2-amines, the use thereof as anaesthetising, cardiovascular and hypometabolic agents, and pharmaceutical composition containing them” (priority 1998, dated 2001)", "experiment": "rectal (body) temperature of mice measured with medicinal electrothermometer TREM-1", "type": "in vivo, mice of the BALB line", "experimental": "In all cases tests were carried out on mice of the BALB line of 3-4 month age. […] In the case of water-soluble compounds, aqueous solutions of the test compounds were injected intraperitoneally (i.p.), while water-insoluble compounds were introduced orally (p.o.).\nRectal temperature changes (absolute magnitues in ° C.) were measured using a medicinal electrothermometer TREM-1 (Table 1). The rate of oxygen consumption was monitored by measuring concentration of oxygen in a closed testing unit with optic-acoustic gas analyser MN 5130. The data on oxygen consumption are given in percents relative to the starting content of oxygen taken as 100%. (Table 2).\nRectal temperature of mice was followed in dynamics after 5, 15, 30, 60, 120, 180, 240, 300, and 360 minutes (Table 3). […] The same decrease in temperature at 190 mg/kg dosage was reached after 15 minutes; in 1.5 hours it reached 22-25° C. and maintained this level over the next 5 hours, that is 13-17° C. below the initial value. After one day, body temperature was restored to the value of 94-96% of initial.", "key": {"[1]": {"settings": "i.p., 0 min, mg/kg: cpd 1 190.0, cpd 2 178.0, cpd 5 190.0, cpd 6 160.0"}, "[2]": {"settings": "i.p., 30 min, mg/kg: cpd 1 190.0, cpd 2 178.0, cpd 5 190.0, cpd 6 160.0"}, "[3]": {"settings": "i.p., 60 min, mg/kg: cpd 1 190.0, cpd 2 178.0, cpd 5 190.0, cpd 6 160.0"}, "[4]": {"settings": "i.p., 120 min, mg/kg: cpd 1 190.0, cpd 2 178.0, cpd 5 190.0, cpd 6 160.0"}, "[5]": {"settings": "i.p., 180 min, mg/kg: cpd 1 190.0, cpd 2 178.0, cpd 5 190.0, cpd 6 160.0"}, "[6]": {"settings": "i.p., 240 min, mg/kg: cpd 1 190.0, cpd 2 178.0, cpd 5 190.0, cpd 6 160.0"}, "[7]": {"settings": "p.o., 0 min, mg/kg: cpd 4 437.0, cpd 5 328.0, cpd 6 407.0, cpd 8 435.0"}, "[8]": {"settings": "p.o., 30 min, mg/kg: cpd 4 437.0, cpd 5 328.0, cpd 6 407.0, cpd 8 435.0"}, "[9]": {"settings": "p.o., 60 min, mg/kg: cpd 4 437.0, cpd 5 328.0, cpd 6 407.0, cpd 8 435.0"}, "[10]": {"settings": "p.o., 90 min, mg/kg: cpd 4 437.0, cpd 5 328.0, cpd 6 407.0"}, "[11]": {"settings": "p.o., 120 min, mg/kg: cpd 4 437.0, cpd 5 328.0, cpd 7 407.0, cpd 8 435.0"}, "[12]": {"settings": "p.o., 180 min, mg/kg: cpd 4 437.0, cpd 7 407.0, cpd 8 435.0"}, "[13]": {"settings": "p.o., 240 min, mg/kg: cpd 4 437.0, cpd 7 407.0, cpd 8 435.0"}, "[14]": {"settings": "i.p., 90 min, mg/kg: cpd 1 190.0, cpd 2 178.0, cpd 6 160.0"}, "[15]": {"settings": "i.p., 300 min, mg/kg: cpd 1 190.0, cpd 2 178.0, cpd 6 160.0"}, "[16]": {"settings": "p.o., 300 min, mg/kg: cpd 7 407.0, cpd 8 435.0"}}, "data": [{"smiles": "Br.c1ccc(C2=NN=C(N3CCSCC3)SC2)cc1", "note": "[Compound 5, 2-Thiomorpholino-5-phenyl-6H-1,3,4-thiadiazine, hydrobromide]", "values": [{"measurement": "body temperature", "setting": "[1]", "result": 38.0, "unit": "°C"}, {"measurement": "body temperature", "setting": "[2]", "result": 28.0, "unit": "°C"}, {"measurement": "body temperature", "setting": "[3]", "result": 27.1, "unit": "°C"}, {"measurement": "body temperature", "setting": "[4]", "result": 25.0, "unit": "°C"}, {"measurement": "body temperature", "setting": "[5]", "result": 23.3, "unit": "°C"}, {"measurement": "body temperature", "setting": "[6]", "result": 23.6, "unit": "°C"}, {"measurement": "body temperature", "setting": "[7]", "result": 38.0, "unit": "°C"}, {"measurement": "body temperature", "setting": "[8]", "result": 27.5, "unit": "°C"}, {"measurement": "body temperature", "setting": "[9]", "result": 26.0, "unit": "°C"}, {"measurement": "body temperature", "setting": "[10]", "result": 24.0, "unit": "°C"}, {"measurement": "body temperature", "setting": "[11]", "result": 24.0, "unit": "°C"}]}, {"smiles": "Br.Brc1cccc(C2=NN=C(N3CCOCC3)SC2)c1", "note": "[Compound 4, 2-Morpholino-5-(3-bromophenyl)-6H-1,3,4-thiadiazine, hydrobromide]", "values": [{"measurement": "body temperature", "setting": "[7]", "result": 38.0, "unit": "°C"}, {"measurement": "body temperature", "setting": "[8]", "result": 35.9, "unit": "°C"}, {"measurement": "body temperature", "setting": "[9]", "result": 33.8, "unit": "°C"}, {"measurement": "body temperature", "setting": "[10]", "result": 33.5, "unit": "°C"}, {"measurement": "body temperature", "setting": "[11]", "result": 32.9, "unit": "°C"}, {"measurement": "body temperature", "setting": "[12]", "result": 33.1, "unit": "°C"}, {"measurement": "body temperature", "setting": "[13]", "result": 32.8, "unit": "°C"}]}, {"smiles": "CS(=O)(=O)O.c1ccc(C2=NN=C(N3CCOCC3)SC2)cc1", "note": "[Compound 2, 2-Morpholino-5-phenyl-6H-1,3,4-thiadiazine, mesilate]", "values": [{"measurement": "body temperature", "setting": "[1]", "result": 38.0, "unit": "°C"}, {"measurement": "body temperature", "setting": "[2]", "result": 30.1, "unit": "°C"}, {"measurement": "body temperature", "setting": "[3]", "result": 26.7, "unit": "°C"}, {"measurement": "body temperature", "setting": "[14]", "result": 25.5, "unit": "°C"}, {"measurement": "body temperature", "setting": "[4]", "result": 26.9, "unit": "°C"}, {"measurement": "body temperature", "setting": "[5]", "result": 31.0, "unit": "°C"}, {"measurement": "body temperature", "setting": "[6]", "result": 35.4, "unit": "°C"}, {"measurement": "body temperature", "setting": "[15]", "result": 35.4, "unit": "°C"}]}, {"smiles": "Br.Brc1cccc(C2=NN=C(N3CCSCC3)SC2)c1", "note": "[Compound 8, 2-Thiomorpholino-5-(3-bromophenyl)-6H-1,3,4-thiadiazine, hydrobromide]", "values": [{"measurement": "body temperature", "setting": "[7]", "result": 38.1, "unit": "°C"}, {"measurement": "body temperature", "setting": "[8]", "result": 35.2, "unit": "°C"}, {"measurement": "body temperature", "setting": "[9]", "result": 35.0, "unit": "°C"}, {"measurement": "body temperature", "setting": "[11]", "result": 33.4, "unit": "°C"}, {"measurement": "body temperature", "setting": "[12]", "result": 33.5, "unit": "°C"}, {"measurement": "body temperature", "setting": "[13]", "result": 32.3, "unit": "°C"}, {"measurement": "body temperature", "setting": "[16]", "result": 33.9, "unit": "°C"}]}, {"smiles": "CS(=O)(=O)O.c1ccc(C2=NN=C(N3CCSCC3)SC2)cc1", "note": "[Compound 6, 2-Thiomorpholino-5-phenyl-6H-1,3,4-thiadiazine, mesilate]", "values": [{"measurement": "body temperature", "setting": "[1]", "result": 37.9, "unit": "°C"}, {"measurement": "body temperature", "setting": "[2]", "result": 30.6, "unit": "°C"}, {"measurement": "body temperature", "setting": "[3]", "result": 26.9, "unit": "°C"}, {"measurement": "body temperature", "setting": "[14]", "result": 26.3, "unit": "°C"}, {"measurement": "body temperature", "setting": "[4]", "result": 25.8, "unit": "°C"}, {"measurement": "body temperature", "setting": "[5]", "result": 27.4, "unit": "°C"}, {"measurement": "body temperature", "setting": "[6]", "result": 28.9, "unit": "°C"}, {"measurement": "body temperature", "setting": "[15]", "result": 30.9, "unit": "°C"}, {"measurement": "body temperature", "setting": "[7]", "result": 37.7, "unit": "°C"}, {"measurement": "body temperature", "setting": "[8]", "result": 34.0, "unit": "°C"}, {"measurement": "body temperature", "setting": "[9]", "result": 33.4, "unit": "°C"}, {"measurement": "body temperature", "setting": "[10]", "result": 32.6, "unit": "°C"}]}, {"smiles": "Br.CCOc1ccc(C2=NN=C(N3CCSCC3)SC2)cc1", "note": "[Compound 7, 2-Thiomorpholino-5-(4-ethoxyphenyl)-6H-1,3,4-thiadiazine, hydrobromide]", "values": [{"measurement": "body temperature", "setting": "[11]", "result": 33.5, "unit": "°C"}, {"measurement": "body temperature", "setting": "[12]", "result": 32.3, "unit": "°C"}, {"measurement": "body temperature", "setting": "[13]", "result": 30.6, "unit": "°C"}, {"measurement": "body temperature", "setting": "[16]", "result": 30.6, "unit": "°C"}]}]}
